The values below come from patent US10946023B2, “Therapeutically active compounds and their methods of use” (Agios Pharmaceuticals, Inc., priority 2013, dated 2021).

In one assay the target is IDH1 R132C (Homo sapiens (Human), UniProt O75874, R132C). Description: IDH1 R132C homodimer NADPH depletion assay (Table 4 column 6). In kind it is biochemical. How it is done:
(§1) The following describes the experimental procedures that can be used to obtain data on columns 3 and 6 of Table 4.
(§2) A test compound is prepared as 10 mM stock in DMSO and diluted to 50× final concentration in DMSO, for a 50 μl reaction mixture. IDH enzyme activity converting alpha-ketoglutarate to 2-hydroxyglutaric acid is measured using a NADPH depletion assay. In the assay the remaining cofactor is measured at the end of the reaction with the addition of a catalytic excess of diaphorase and resazurin, to generate a fluorescent signal in proportion to the amount of NADPH remaining. […] The reaction is started with the addition of 10 μl of Substrate Mix ([…], 5 mM alpha-ketoglutarate, in Assay Buffer) and the mixture is incubated for 90 minutes at room temperature.
The concentration of NADPH and alpha-ketoglutarate in the Substrate Buffer is 20 μM and 1 mM, respectively.

The target of assay [1] is IDH1-R132 homodimer enzyme (R132H) (Homo sapiens (Human), UniProt O75874, R132H). Briefly: IDH1 R132H homodimer NADPH depletion assay (Table 4 column 3). Format: biochemical. As for the experimental part: as §1, §2
Chain of IDH1-R132 homodimer enzyme (R132H) (O75874 whole entry R132H): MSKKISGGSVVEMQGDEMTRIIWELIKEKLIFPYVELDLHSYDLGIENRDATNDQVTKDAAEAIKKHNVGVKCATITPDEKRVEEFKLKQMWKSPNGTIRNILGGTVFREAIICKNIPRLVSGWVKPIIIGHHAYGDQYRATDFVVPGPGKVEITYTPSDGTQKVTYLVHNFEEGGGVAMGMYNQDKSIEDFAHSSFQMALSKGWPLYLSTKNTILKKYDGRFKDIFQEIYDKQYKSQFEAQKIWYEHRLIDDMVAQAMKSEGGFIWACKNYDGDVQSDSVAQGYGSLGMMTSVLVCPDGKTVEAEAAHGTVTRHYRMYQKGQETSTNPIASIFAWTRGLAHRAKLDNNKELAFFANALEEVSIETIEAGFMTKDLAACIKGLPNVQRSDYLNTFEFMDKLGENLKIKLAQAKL
Assay [2] deals with IDH1 wt/IDH1 R132H heterodimer (Homo sapiens (Human), UniProt O75874, R132H). Description: IDH1 wt/R132H heterodimer NADPH depletion (diaphorase/resazurin) assay. The note with it: read-out: IDH1 wt/R132H NADPH/NADP IC50 not saturated. In kind it is biochemical. As for the experimental part:
The following describes the experimental procedures that can be used to obtain data on columns 2 and 4 of Table 4 and column 2 of Table 5.
In the primary reaction, the reduction of α-KG acid to 2-HG is accompanied by a concomitant oxidation of NADPH to NADP. The amount of NADPH remaining at the end of the reaction time is measured in a secondary diaphorase/resazurin reaction in which the NADPH is consumed in a 1:1 molar ratio with the conversion of resazurin to the highly fluorescent resorufin.
The mixture of compound, enzyme, and cofactor is pre-incubated at room temperature for 1 hr prior to the addition of alpha-ketoglutarate. To perform the secondary reaction, 10 uL of 1× buffer containing 36 μg/ml diaphorase and […] resazurin is added to the primary reaction and incubated for a further 5 minutes at 25° C. […] Compounds or compound dilutions are prepared in 100% DMSO concentration and diluted 1:50 into the final reaction. […] IC50s are determined.
IDH1 or IDH2 wildtype (wt) and mutant heterodimers are expressed and purified by methods known in the art. […] Co-expression of IDH1wt-his and IDH1R132C-flag is carried out in sf9 insect cells. […] Cells are disrupted with 4 passes through an M-Y110 Micro fluidizer (Microfluidics) set to 500 psi, and then centrifuged at 22,000 rcf for 20 min at 4° C. […]
(The colour change of resazurin is a common sign of viable cells or microbes.)

In the next assay the test system is HT1080 cells. Description: HT1080 cellular assay, 2-HG by LC-MS (IDH1 R132C). Format: cell-based. Particulars: Homo sapiens, HT-1080. How it is done:
The following describes the experimental procedures that can be used to obtain data on column 5 of Table 4.
Cells (HT1080 or U87MG) are grown in T125 flasks in DMEM containing 10% FBS, 1× penicillin/streptomycin and 500 ug/mL G418 (present in U87MG cells only). They are harvested by trypsin and seeded into 96 well white bottom plates at a density of 5000 cell/well in 100 ul/well in DMEM with 10% FBS. No cells are placed in columns 1 and 12. Cells are incubated overnight at 37° C. in 5% CO2. The next day test compounds are made up at 2× the final concentration and 100 ul are added to each cell well. The final concentration of DMSO is 0.2% and the DMSO control wells are plated in row G. The plates are then placed in the incubator for 48 hours. At 48 hours, 100 ul of media is removed from each well and analyzed by LC-MS for 2-HG concentrations. The cell plate is placed back in the incubator for another 24 hours. At 72 hours post compound addition, 10 mL/plate of Promega Cell Titer Glo reagent is thawed and mixed. The cell plate is removed from the incubator and allowed to equilibrate to room temperature. Then 100 ul of Promega Cell Titer Glo reagent is added to each well of media. The cell plate is then placed on an orbital shaker for 10 minutes and then allowed to sit at room temperature for 20 minutes. The plate is then read for luminescence with an integration time of 500 ms.
HT1080 cells are maintained in RPMI containing 10% FBS, 1× penicillin/streptomycin. […] The next day compounds are prepared in 100% DMSO and then diluted in media for a final concentration of 0.2% DMSO. Media is removed from the cell plates and 200 μL of the compound dilutions are added to each well. […] The cell plates are then allowed to incubate another 24 hours.

Assay [3] concerns U87MG pLVX-IDH2 R140Q-neo cells. Briefly: U87MG pLVX-IDH2 R140Q-neo cell based assay, 2-HG by LC-MS. The note with it: Homo sapiens, U-87 MG.
The next assay concerns the target IDH2 R140Q (Homo sapiens (Human), UniProt P48735, R140Q). Briefly: IDH2 R140Q cofactor depletion assay (Table 4 column 7). Format: biochemical. From the text:
The following describes the experimental procedures used to obtain data on column 7 of Table 4.
The reaction is terminated by the addition of a second enzyme, diaphorase, and a corresponding substrate, resazurin. Diaphorase reduces resazurin to the highly fluorescent resorufin with the concomitant oxidation of NADPH to NADP, both halting the IDH2 reaction by depleting the available cofactor pool and facilitating quantitation of the amount of cofactor remaining after a specific time period through quantitative production of an easily detected fluorophore.
The test compound is then incubated for one hour at room temperature with the enzyme; before starting the IDH2 reaction with the addition of 10 μl of substrate mix containing 4 μM NADPH and 1.6 mM α-KG in the buffer described above. After a further 16 hours of incubation at room temperature, the reaction is halted and the remaining NADPH measured through conversion of resazurin to resorufin by the addition of 25 μl Stop Mix (36 μg/ml diaphorase enzyme and 60 μM resazurin; in buffer).

Chain of IDH1 wt/IDH1 R132H heterodimer (O75874 whole entry R132H): as above
Chain of IDH1 wt/IDH1 R132H heterodimer (O75874 whole entry, stated change not applied): as the sequence (O75874 whole entry R132H) above, with H132R counted along it
Chain of IDH2 R140Q (P48735 40-452 R140Q): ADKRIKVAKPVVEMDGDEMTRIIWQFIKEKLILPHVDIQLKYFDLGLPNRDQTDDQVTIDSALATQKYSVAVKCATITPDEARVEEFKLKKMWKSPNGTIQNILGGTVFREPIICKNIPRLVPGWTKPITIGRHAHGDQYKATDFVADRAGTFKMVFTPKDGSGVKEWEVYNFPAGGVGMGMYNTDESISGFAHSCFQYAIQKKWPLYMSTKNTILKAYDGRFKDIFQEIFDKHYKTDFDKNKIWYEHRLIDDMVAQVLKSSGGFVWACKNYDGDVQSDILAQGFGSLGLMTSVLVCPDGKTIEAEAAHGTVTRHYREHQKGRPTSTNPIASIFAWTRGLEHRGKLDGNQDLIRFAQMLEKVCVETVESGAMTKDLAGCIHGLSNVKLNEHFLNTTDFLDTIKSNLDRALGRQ
Chain of IDH1 R132C (O75874 whole entry R132C): as the sequence (O75874 whole entry R132H) above, with H132C counted along it

Regarding `Cc1cccc(-c2nc(NC3CCC(F)(F)CC3)nc(N[C@H](C)C3CC3)n2)n1` [Compound 50], the figures for the IC50 (against IDH1 R132C; in assay [1]; in assay [2]) were 50 to 100 nM, less than 50 nM and less than 50 nM, respectively.

In the assay on HT1080 cells, `N#CC1(c2cc(Nc3nc(N[C@H]4CCC(F)(F)C4)nc(-c4cccc(C(F)(F)F)n4)n3)ccn2)CC1` [Compound 133] gave an IC50 of 100 to 1000 nM.

In the case of `N#CC1(c2cc(Nc3nc(N[C@@H]4CCC(F)(F)C4)nc(-c4cccc(C(F)(F)F)n4)n3)ccn2)CC1` [Compound 137], in the assay on HT1080 cells, the IC50 was in the range of 50 to 100 nM.

On to `FC1(F)CCC(Nc2nc(NC3CCC(F)(F)C3)nc(-c3cncc(C(F)(F)F)n3)n2)C1` (centres unmarked) [Compound 138], for which, in the assay with HT1080 cells, the IC50 was less than 50 nM.

In turn, `N#CC1(c2cc(Nc3nc(NC4CCC(F)(F)C4)nc(-c4cccc(C(F)(F)F)n4)n3)ccn2)CC1` (centres unmarked) [Compound 151] returned an IC50 in the assay with HT1080 cells of 50 to 100 nM.

Take `FC1(F)CC[C@H](Nc2nc(Nc3ccnc(C(F)(F)F)c3)nc(-c3cccc(C(F)(F)F)n3)n2)C1` [Compound 158]: the IC50 in the assay with HT1080 cells fell in the range of 100 to 1000 nM.

On to `FC1(F)CC[C@@H](Nc2nc(Nc3ccnc(C(F)(F)F)c3)nc(-c3cccc(C(F)(F)F)n3)n2)C1` [Compound 172], for which the IC50 in the assay with HT1080 cells lay in the range of 50 to 100 nM.

In turn, `FC1(F)CCC(Nc2nc(Nc3ccnc(C(F)(F)F)c3)nc(-n3ccc(C(F)(F)F)n3)n2)C1` (centres unmarked) [Compound 173] yielded an IC50 with HT1080 cells of 50 to 100 nM.

Take `N#CC1(c2cc(Nc3nc(N[C@H]4CCC(F)(F)C4)nc(-n4ccc(C(F)(F)F)n4)n3)ccn2)CC1` [Compound 174]: the IC50 in the assay with HT1080 cells was 50 to 100 nM.

`CC(Nc1nc(Nc2ccnc(C(F)(F)F)c2)nc(-n2ccc(C(F)(F)F)n2)n1)C(F)(F)F` (centres unmarked) [Compound 177]: the IC50 in the assay with HT1080 cells was in the range of 50 to 100 nM.

In the assay on HT1080 cells, `FC1(F)CCC(Nc2nc(Nc3ccnc(C(F)(F)F)c3)nc(-c3cccc(C(F)(F)F)n3)n2)C1` (centres unmarked) [Compound 178] registered an IC50 of 100 to 1000 nM.

In turn, `N#CC1(c2cc(Nc3nc(NC4CCC(F)(F)C4)nc(-n4ccc(C(F)(F)F)n4)n3)ccn2)CC1` (centres unmarked) [Compound 185] showed an IC50 in the assay on HT1080 cells of 50 to 100 nM.

`FC1(F)CC(Nc2nc(Nc3ccnc(C(F)(F)F)c3)nc(-c3cccc(C(F)(F)F)n3)n2)C1` [Compound 190]: the IC50 with HT1080 cells was 100 to 1000 nM.

For the molecule `CC(C)(O)CNc1nc(Nc2ccnc(C(F)(F)F)c2)nc(-c2cccc(C(F)(F)F)n2)n1` [Compound 288], the IC50 (in assay [3]; in assay [2]; on IDH2 R140Q) was 100 to 1000 nM in each case.

In the assay on HT1080 cells, `N#CC1(c2cc(Nc3nc(N[C@@H]4CCC(F)(F)C4)nc(-n4ccc(C(F)(F)F)n4)n3)ccn2)CC1` [Compound 350] gave an IC50 of 50 to 100 nM.

As to `FC1(F)CC[C@H](Nc2nc(Nc3ccnc(C(F)(F)F)c3)nc(-n3ccc(C(F)(F)F)n3)n2)C1` [Compound 393], the IC50 in the assay with HT1080 cells was 100 to 1000 nM.

For the molecule `FC1(F)CC[C@@H](Nc2nc(N[C@H]3CCC(F)(F)C3)nc(-c3cncc(C(F)(F)F)n3)n2)C1` [Compound 399], the IC50 in the assay with HT1080 cells is less than 50 nM.

Regarding `FC1(F)CC[C@H](Nc2nc(N[C@H]3CCC(F)(F)C3)nc(-c3cncc(C(F)(F)F)n3)n2)C1` [Compound 406], the IC50 with HT1080 cells was less than 50 nM.

In turn, `FC1(F)CC[C@@H](Nc2nc(N[C@@H]3CCC(F)(F)C3)nc(-c3cncc(C(F)(F)F)n3)n2)C1` [Compound 410] came in with an IC50 in the assay on HT1080 cells of less than 50 nM.
